From ChEMBL document CHEMBL1141668, “Synthesis and biological activity of imidazopyridine anticoccidial agents: Part II” (Eur J Med Chem, 2008) come the findings set out here.

The first assay has as its system Eimeria acervulina. Nature of the assay: Anticoccidial activity against Eimeria acervulina in chickens assessed as reduction of oocysts at 25 ppm measured after 8 days by ExMAC assay relative to untreated control. It counts as functional. On the set-up: scale not given: the % may be the effect or the level left.
As for `CN1CCN(c2ccn3c(-c4ccnc(N)n4)c(-c4ccc(F)cc4)nc3c2)CC1`, the Activity is on record as <50%.

For `Nc1nccc(-c2c(-c3ccc(F)cc3)nc3cc(C4CCN(CC5CC5)CC4)ccn23)n1`, the Activity is recorded as 100%.

With `CN(C)CC(C)(C)c1ccn2c(-c3ccnc(N)n3)c(-c3ccc(F)cc3)nc2c1`, the Activity turned out to be 80%.

A further assay deals with Eimeria mitis. The assay is described as follows: Anticoccidial activity against Eimeria mitis in chickens assessed as reduction of oocysts at 6.25 ppm measured after 8 days by ExMAC assay relative to untreated control. It counts as functional. Details: scale not given: the % may be the effect or the level left.
For the molecule `CN1CCN(c2ccn3c(-c4ccnc(N)n4)c(-c4ccc(F)cc4)nc3c2)CC1`, the Activity came to 50%.

For the molecule `Nc1nccc(-c2c(-c3ccc(F)cc3)nc3cc(C4CCN(CC5CC5)CC4)ccn23)n1`, the Activity is given as 80%.

`CN(C)CC(C)(C)c1ccn2c(-c3ccnc(N)n3)c(-c3ccc(F)cc3)nc2c1`: the Activity is on record as <50%.

The subject of a further assay is Eimeria acervulina. Nature of the assay: Anticoccidial activity against Eimeria acervulina in chickens assessed as reduction of oocysts at 6.25 ppm measured after 8 days by ExMAC assay relative to untreated control. It counts as functional. Details: scale not given: the % may be the effect or the level left.
For the molecule `CN1CCN(c2ccn3c(-c4ccnc(N)n4)c(-c4ccc(F)cc4)nc3c2)CC1`, the Activity is given as <50%.

As for `Nc1nccc(-c2c(-c3ccc(F)cc3)nc3cc(C4CCN(CC5CC5)CC4)ccn23)n1`, the Activity is given as 80%.

Turning to `CN(C)CC(C)(C)c1ccn2c(-c3ccnc(N)n3)c(-c3ccc(F)cc3)nc2c1`, the Activity is given as <50%.

Another assay relates to Eimeria mitis. The assay is described as follows: Anticoccidial activity against Eimeria mitis in chickens assessed as reduction of oocysts at 12.5 ppm measured after 8 days by ExMAC assay relative to untreated control. Type of assay: functional. On the set-up: scale not given: the % may be the effect or the level left.
On to `CN1CCN(c2ccn3c(-c4ccnc(N)n4)c(-c4ccc(F)cc4)nc3c2)CC1`, for which the Activity was found to be 50%.

Regarding `Nc1nccc(-c2c(-c3ccc(F)cc3)nc3cc(C4CCN(CC5CC5)CC4)ccn23)n1`, the Activity worked out at 80%.

Consider `CN(C)CC(C)(C)c1ccn2c(-c3ccnc(N)n3)c(-c3ccc(F)cc3)nc2c1`, for which the Activity is listed as <50%.

The next assay concerns Eimeria tenella. Nature of the assay: Anticoccidial activity against Eimeria tenella in chickens assessed as reduction of oocysts at 6.25 ppm measured after 8 days by ExMAC assay relative to untreated control. Details: scale not given: the % may be the effect or the level left. It counts as functional.
On to `CN1CCN(c2ccn3c(-c4ccnc(N)n4)c(-c4ccc(F)cc4)nc3c2)CC1`, for which the Activity was <50%.

As to `Nc1nccc(-c2c(-c3ccc(F)cc3)nc3cc(C4CCN(CC5CC5)CC4)ccn23)n1`, the Activity is 80%.

In the case of `CN(C)CC(C)(C)c1ccn2c(-c3ccnc(N)n3)c(-c3ccc(F)cc3)nc2c1`, the Activity is <50%.

The next assay deals with Eimeria maxima. Nature of the assay: Anticoccidial activity against Eimeria maxima in chickens assessed as reduction of oocysts at 12.5 ppm measured after 8 days by ExMAC assay relative to untreated control. Type of assay: functional. Details: scale not given: the % may be the effect or the level left.
On to `CN1CCN(c2ccn3c(-c4ccnc(N)n4)c(-c4ccc(F)cc4)nc3c2)CC1`, for which the Activity is on record as <50%.

Take `Nc1nccc(-c2c(-c3ccc(F)cc3)nc3cc(C4CCN(CC5CC5)CC4)ccn23)n1`: the Activity is on record as 80%.

Take `CN(C)CC(C)(C)c1ccn2c(-c3ccnc(N)n3)c(-c3ccc(F)cc3)nc2c1`: the Activity was <50%.

A further assay relates to Eimeria mitis. The assay is described as follows: Anticoccidial activity against Eimeria mitis in chickens assessed as reduction of oocysts at 25 ppm measured after 8 days by ExMAC assay relative to untreated control. Details: scale not given: the % may be the effect or the level left. Type of assay: functional.
`CN1CCN(c2ccn3c(-c4ccnc(N)n4)c(-c4ccc(F)cc4)nc3c2)CC1`: the Activity is on record as 80%.

`Nc1nccc(-c2c(-c3ccc(F)cc3)nc3cc(C4CCN(CC5CC5)CC4)ccn23)n1`: the Activity is listed as 80%.

For the molecule `CN(C)CC(C)(C)c1ccn2c(-c3ccnc(N)n3)c(-c3ccc(F)cc3)nc2c1`, the Activity was 80%.

The test system of another assay is Eimeria tenella. Nature of the assay: Anticoccidial activity against Eimeria tenella in chickens assessed as reduction of oocysts at 25 ppm measured after 8 days by ExMAC assay relative to untreated control. Type of assay: functional. Details: scale not given: the % may be the effect or the level left.
As for `CN1CCN(c2ccn3c(-c4ccnc(N)n4)c(-c4ccc(F)cc4)nc3c2)CC1`, the Activity is given as 80%.

For `Nc1nccc(-c2c(-c3ccc(F)cc3)nc3cc(C4CCN(CC5CC5)CC4)ccn23)n1`, the Activity was 100%.

Turning to `CN(C)CC(C)(C)c1ccn2c(-c3ccnc(N)n3)c(-c3ccc(F)cc3)nc2c1`, the Activity is 100%.

A further assay deals with cGMP-dependent protein kinase (Eimeria tenella, UniProt Q8MMZ8). Nature of the assay: Inhibition of Eimeria tenella cGMP-dependent protein kinase.
Sequence of cGMP-dependent protein kinase (Q8MMZ8 whole entry): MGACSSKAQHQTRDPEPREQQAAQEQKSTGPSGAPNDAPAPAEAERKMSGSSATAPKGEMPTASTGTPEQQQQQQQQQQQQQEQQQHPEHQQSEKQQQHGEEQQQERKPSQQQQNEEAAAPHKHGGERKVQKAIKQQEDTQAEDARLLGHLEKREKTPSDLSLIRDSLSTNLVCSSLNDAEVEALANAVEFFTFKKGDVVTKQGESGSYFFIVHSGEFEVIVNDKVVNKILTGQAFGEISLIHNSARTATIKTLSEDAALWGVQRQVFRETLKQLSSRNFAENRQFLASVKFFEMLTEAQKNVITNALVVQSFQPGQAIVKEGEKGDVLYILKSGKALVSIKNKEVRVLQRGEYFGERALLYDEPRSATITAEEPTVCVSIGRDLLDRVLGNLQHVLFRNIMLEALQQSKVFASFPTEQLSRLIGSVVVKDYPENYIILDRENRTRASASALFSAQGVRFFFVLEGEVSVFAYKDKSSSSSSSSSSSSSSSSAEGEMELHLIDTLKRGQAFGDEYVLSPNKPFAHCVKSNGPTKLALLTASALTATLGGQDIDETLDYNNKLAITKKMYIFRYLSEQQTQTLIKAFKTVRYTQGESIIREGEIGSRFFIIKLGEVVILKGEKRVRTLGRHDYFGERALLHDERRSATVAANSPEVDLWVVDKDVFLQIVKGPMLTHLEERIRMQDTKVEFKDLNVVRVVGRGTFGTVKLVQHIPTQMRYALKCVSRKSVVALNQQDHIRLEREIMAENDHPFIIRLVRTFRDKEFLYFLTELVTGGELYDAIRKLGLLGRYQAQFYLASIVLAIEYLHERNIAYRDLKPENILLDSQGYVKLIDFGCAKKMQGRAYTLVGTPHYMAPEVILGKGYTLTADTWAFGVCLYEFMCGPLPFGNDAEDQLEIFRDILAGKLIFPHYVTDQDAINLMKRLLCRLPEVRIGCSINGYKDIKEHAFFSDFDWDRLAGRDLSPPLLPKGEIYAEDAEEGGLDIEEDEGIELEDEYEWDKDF
A word on the IC50: it is the concentration that inhibits the measured activity by half. For the molecule `CN1CCN(c2ccn3c(-c4ccnc(N)n4)c(-c4ccc(F)cc4)nc3c2)CC1`, the IC50 amounted to 0.23 nM.

Take `Nc1nccc(-c2c(-c3ccc(F)cc3)nc3cc(C4CCN(CC5CC5)CC4)ccn23)n1`: the IC50 was 0.095 nM.

Consider `CN(C)CC(C)(C)c1ccn2c(-c3ccnc(N)n3)c(-c3ccc(F)cc3)nc2c1`, for which the IC50 is 0.2 nM.

In a further assay the test system is Eimeria acervulina. The assay is described as follows: Anticoccidial activity against Eimeria acervulina in chickens assessed as reduction of oocysts at 12.5 ppm measured after 8 days by ExMAC assay relative to untreated control. It counts as functional. Details: scale not given: the % may be the effect or the level left.
Take `CN1CCN(c2ccn3c(-c4ccnc(N)n4)c(-c4ccc(F)cc4)nc3c2)CC1`: the Activity is <50%.

In the case of `Nc1nccc(-c2c(-c3ccc(F)cc3)nc3cc(C4CCN(CC5CC5)CC4)ccn23)n1`, the Activity is listed as 80%.

Turning to `CN(C)CC(C)(C)c1ccn2c(-c3ccnc(N)n3)c(-c3ccc(F)cc3)nc2c1`, the Activity amounted to 80%.

In the next assay the test system is Eimeria maxima. The assay is described as follows: Anticoccidial activity against Eimeria maxima in chickens assessed as reduction of oocysts at 6.25 ppm measured after 8 days by ExMAC assay relative to untreated control. It counts as functional. Details: scale not given: the % may be the effect or the level left.
Consider `CN1CCN(c2ccn3c(-c4ccnc(N)n4)c(-c4ccc(F)cc4)nc3c2)CC1`, for which the Activity is <50%.

Regarding `Nc1nccc(-c2c(-c3ccc(F)cc3)nc3cc(C4CCN(CC5CC5)CC4)ccn23)n1`, the Activity is 80%.

In the case of `CN(C)CC(C)(C)c1ccn2c(-c3ccnc(N)n3)c(-c3ccc(F)cc3)nc2c1`, the Activity is <50%.

The subject of another assay is Eimeria tenella. The assay is described as follows: Anticoccidial activity against Eimeria tenella in chickens assessed as reduction of oocysts at 12.5 ppm measured after 8 days by ExMAC assay relative to untreated control. Type of assay: functional. Details: scale not given: the % may be the effect or the level left.
For the molecule `CN1CCN(c2ccn3c(-c4ccnc(N)n4)c(-c4ccc(F)cc4)nc3c2)CC1`, the Activity is on record as 80%.

In the case of `Nc1nccc(-c2c(-c3ccc(F)cc3)nc3cc(C4CCN(CC5CC5)CC4)ccn23)n1`, the Activity is listed as 100%.

As for `CN(C)CC(C)(C)c1ccn2c(-c3ccnc(N)n3)c(-c3ccc(F)cc3)nc2c1`, the Activity was 80%.

A further assay has as its system Eimeria maxima. Nature of the assay: Anticoccidial activity against Eimeria maxima in chickens assessed as reduction of oocysts at 25 ppm measured after 8 days by ExMAC assay relative to untreated control. Details: scale not given: the % may be the effect or the level left. It counts as functional.
Consider `CN1CCN(c2ccn3c(-c4ccnc(N)n4)c(-c4ccc(F)cc4)nc3c2)CC1`, for which the Activity was found to be 100%.

Regarding `Nc1nccc(-c2c(-c3ccc(F)cc3)nc3cc(C4CCN(CC5CC5)CC4)ccn23)n1`, the Activity worked out at 80%.

`CN(C)CC(C)(C)c1ccn2c(-c3ccnc(N)n3)c(-c3ccc(F)cc3)nc2c1`: the Activity is recorded as <50%.
